In patent US8716297B2, “Chemical entities to be used for Wee1 inhibition for the treatment of cancer” (AbbVie Inc., priority 2011, dated 2014):

Target: T1, GST-tagged-Wee1 kinase (Homo sapiens, UniProt P30291)
T1 construct: purchased Carnabio 05-177
Assay: Wee1 time-resolved fluorescence equilibrium binding assay (displacement of Oregon Green-labeled ATP-competitive probe)
Conditions: TR-FRET probe displacement; 2 nM GST-Wee1, 300 nM probe, 1 hour incubation; read-out: Wee-1 binding (Ki nM)
Procedure: Wee1 kinase was assayed using a time-resolved fluorescence equilibrium binding assay monitoring displacement of a rapidly reversible Oregon Green-labeled ATP-competitive kinase probe (N-(2-(2-(2-(4-(4-(5-chloro-4-(2-(1-hydroxycyclobutyl)thiazol-5-yl)-1H-pyrrolo[2,3-b]pyridin-2-yl)phenyl)piperazin-1-yl)ethoxy)ethoxy)ethyl)-2′,7′-difluoro-3′,6′-dihydroxy-3-oxo-3H-spiro[isobenzofuran-1,9′-xanthene]-5-carboxamide) by competitive Wee1 inhibitors.

T1 sequence (P30291 whole entry): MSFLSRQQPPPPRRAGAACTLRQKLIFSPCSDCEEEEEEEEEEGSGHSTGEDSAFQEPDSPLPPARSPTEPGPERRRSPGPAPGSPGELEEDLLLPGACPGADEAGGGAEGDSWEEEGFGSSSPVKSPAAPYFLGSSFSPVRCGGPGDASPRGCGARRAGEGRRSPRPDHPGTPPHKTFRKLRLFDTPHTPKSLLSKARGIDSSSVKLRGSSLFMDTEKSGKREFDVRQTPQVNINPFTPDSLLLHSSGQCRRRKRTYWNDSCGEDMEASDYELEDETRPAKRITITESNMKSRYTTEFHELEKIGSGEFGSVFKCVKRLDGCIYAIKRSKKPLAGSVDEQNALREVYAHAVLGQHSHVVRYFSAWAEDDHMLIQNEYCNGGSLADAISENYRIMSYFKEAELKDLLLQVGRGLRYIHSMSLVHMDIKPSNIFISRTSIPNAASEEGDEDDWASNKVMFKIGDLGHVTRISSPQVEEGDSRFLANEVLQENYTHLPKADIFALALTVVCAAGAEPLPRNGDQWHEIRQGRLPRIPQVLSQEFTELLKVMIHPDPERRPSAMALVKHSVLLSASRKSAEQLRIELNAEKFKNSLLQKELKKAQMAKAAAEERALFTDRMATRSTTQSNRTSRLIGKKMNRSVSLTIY

| SMILES | Ki [nM] |
| --- | --- |
| C=CCN1c2ccccc2-c2nc(Nc3ccc(N4CCOCC4)cc3)ncc2S1(=O)=O [Example 16, 6-allyl-N-[4-(morpholin-4-yl)phenyl]-6H-pyrimido[5,4-c][2,1]benzothiazin-2-amine 5,5-dioxide] | 7 |
| C=CCN1c2ncccc2-c2nc(Nc3ccc(N4CCN(C)CC4)cc3C)ncc2S1(=O)=O [Example 44, 6-allyl-N-[2-methyl-4-(4-methylpiperazin-1-yl)phenyl]-6H-pyrido[2,3-c]pyrimido[4,5-e][1,2]thiazin-2-amine 5,5-dioxide] | 487 |
| C=CCN1c2ccccc2-c2nc(N)ncc2S1(=O)=O [Example 29, 6-allyl-6H-pyrimido[5,4-c][2,1]benzothiazin-2-amine 5,5-dioxide] | 413 |
| C=CCN1c2ncccc2-c2nc(Nc3ccc(N4CCNCC4)c(C(F)(F)F)c3)ncc2S1(=O)=O [Example 51, 6-allyl-N-[4-(piperazin-1-yl)-3-(trifluoromethyl)phenyl]-6H-pyrido[2,3-c]pyrimido[4,5-e][1,2]thiazin-2-amine 5,5-dioxide] | 14 |
| C=CCN1c2ncccc2-c2nc(Nc3ccc(N4CCOCC4)cc3)ncc2S1(=O)=O [Example 52, 6-allyl-N-[4-(morpholin-4-yl)phenyl]-6H-pyrido[2,3-c]pyrimido[4,5-e][1,2]thiazin-2-amine 5,5-dioxide] | 12 |
| C=CCN1c2ncccc2-c2nc(Nc3ccc(N4CCN(C)CC4)c(Cl)c3)ncc2S1(=O)=O [Example 41, 6-allyl-N-[3-chloro-4-(4-methylpiperazin-1-yl)phenyl]-6H-pyrido[2,3-c]pyrimido[4,5-e][1,2]thiazin-2-amine 5,5-dioxide] | 2370 |
| C=CCN1c2ncccc2-c2nc(Nc3ccc4c(c3)CCNC4)ncc2S1(=O)=O [Example 46, 6-allyl-N-(1,2,3,4-tetrahydroisoquinolin-6-yl)-6H-pyrido[2,3-c]pyrimido[4,5-e][1,2]thiazin-2-amine 5,5-dioxide] | 2 |
| C=CCN1c2c(C(=O)OC)cccc2-c2nc(Nc3ccc(N4CCN(C)CC4)cc3)ncc2S1(=O)=O [Example 60, methyl 6-allyl-2-{[4-(4-methylpiperazin-1-yl)phenyl]amino}-6H-pyrimido[5,4-c][2,1]benzothiazine-7-carboxylate 5,5-dioxide] | 9 |
| C=CCN1c2ccccc2-c2nc(Nc3ccc4c(c3)NC(=O)CO4)ncc2S1(=O)=O [Example 6, 6-[(6-allyl-5,5-dioxido-6H-pyrimido[5,4-c][2,1]benzothiazin-2-yl)amino]-2H-1,4-benzoxazin-3(4H)-one] | 47 |
| C=CCN1c2ncccc2-c2nc(Nc3ccc4c(c3)CNCC43CC3)ncc2S1(=O)=O [Example 54, 6-allyl-N-(2′,3′-dihydro-1′H-spiro[cyclopropane-1,4′-isoquinolin]-7′-yl)-6H-pyrido[2,3-c]pyrimido[4,5-e][1,2]thiazin-2-amine 5,5-dioxide] | 1.2 |
| C=CCN1c2ncccc2-c2nc(Nc3ccc(N4CCNCC4)cc3)ncc2S1(=O)=O [Example 34, 6-allyl-N-[4-(piperazin-1-yl)phenyl]-6H-pyrido[2,3-c]pyrimido[4,5-e][1,2]thiazin-2-amine 5,5-dioxide] | 2 |
| C=CCN1c2ncccc2-c2nc(Nc3ccc(C4CCNCC4)cc3)ncc2S1(=O)=O [Example 37, 6-allyl-N-[4-(piperidin-4-yl)phenyl]-6H-pyrido[2,3-c]pyrimido[4,5-e][1,2]thiazin-2-amine 5,5-dioxide] | 5 |
| C=CCN1c2ccccc2-c2nc(Nc3ccc4c(c3)CN(C)CC4(C)C)ncc2S1(=O)=O [Example 22, 6-allyl-N-(2,4,4-trimethyl-1,2,3,4-tetrahydroisoquinolin-7-yl)-6H-pyrimido[5,4-c][2,1]benzothiazin-2-amine 5,5-dioxide] | 1.7 |
| COC(=O)c1ccc2c(c1)N(c1cccc(C)c1)S(=O)(=O)c1cnc(Nc3ccc(N4CCN(C)CC4)cc3)nc1-2 [Example 89, methyl 6-(3-methylphenyl)-2-{[4-(4-methylpiperazin-1-yl)phenyl]amino}-6H-pyrimido[5,4-c][2,1]benzothiazine-8-carboxylate 5,5-dioxide] | 63 |
| C=CCN1c2ccccc2-c2nc(Nc3ccc(-c4nc5ccccc5[nH]4)cc3)ncc2S1(=O)=O [Example 20, 6-allyl-N-[4-(1H-benzimidazol-2-yl)phenyl]-6H-pyrimido[5,4-c][2,1]benzothiazin-2-amine 5,5-dioxide] | 283 |
| C=CCN1c2ncccc2-c2nc(Nc3ccc(N4CCNCC4)c(F)c3)ncc2S1(=O)=O [Example 36, 6-allyl-N-[3-fluoro-4-(piperazin-1-yl)phenyl]-6H-pyrido[2,3-c]pyrimido[4,5-e][1,2]thiazin-2-amine 5,5-dioxide] | 9 |

| SMILES | Ki [nM] |
| --- | --- |
| CCCN1c2cc(C(=O)NC)ccc2-c2nc(Nc3ccc(N4CCN(C)CC4)cc3)ncc2S1(=O)=O [Example 82, N-methyl-2-{[4-(4-methylpiperazin-1-yl)phenyl]amino}-6-propyl-6H-pyrimido[5,4-c][2,1]benzothiazine-8-carboxamide 5,5-dioxide] | 10 |
| C=CCN1c2ccccc2-c2nc(Nc3ccc4c(c3)N(C(C)=O)CC4)ncc2S1(=O)=O [Example 5, 1-{6-[(6-allyl-5,5-dioxido-6H-pyrimido[5,4-c][2,1]benzothiazin-2-yl)amino]-2,3-dihydro-1H-indol-1-yl}ethanone] | 9 |
| C=CCN1c2ncccc2-c2nc(Nc3ccc(N4CCN(C)CC4)c(C)c3)ncc2S1(=O)=O [Example 50, 6-allyl-N-[3-methyl-4-(4-methylpiperazin-1-yl)phenyl]-6H-pyrido[2,3-c]pyrimido[4,5-e][1,2]thiazin-2-amine 5,5-dioxide] | 5 |
| C=CCN1c2ccccc2-c2nc(Nc3ccccc3N3CCN(C)CC3)ncc2S1(=O)=O [Example 12, 6-allyl-N-[2-(4-methylpiperazin-1-yl)phenyl]-6H-pyrimido[5,4-c][2,1]benzothiazin-2-amine 5,5-dioxide] | 738 |
| CN1CCN(c2ccc(Nc3ncc4c(n3)-c3ccccc3N(C)S4(=O)=O)cc2)CC1 [Example 56, 6-methyl-N-[4-(4-methylpiperazin-1-yl)phenyl]-6H-pyrimido[5,4-c][2,1]benzothiazin-2-amine 5,5-dioxide] | 9 |
| CCCN1c2cc(-c3ccccc3)ccc2-c2nc(Nc3ccc(N4CCN(C)CC4)cc3)ncc2S1(=O)=O [Example 68, N-[4-(4-methylpiperazin-1-yl)phenyl]-8-phenyl-6-propyl-6H-pyrimido[5,4-c][2,1]benzothiazin-2-amine 5,5-dioxide] | 92 |
| CCCN1c2ccc(-c3ccccc3CN(C)C)cc2-c2nc(Nc3ccc(N4CCN(C)CC4)cc3)ncc2S1(=O)=O [Example 101, 9-{2-[(dimethylamino)methyl]phenyl}-N-[4-(4-methylpiperazin-1-yl)phenyl]-6-propyl-6H-pyrimido[5,4-c][2,1]benzothiazin-2-amine 5,5-dioxide] | 7.6 |
| C=CCN1c2ncccc2-c2nc(Nc3ccc4c(c3)CNCC4)ncc2S1(=O)=O [Example 33, 6-allyl-N-(1,2,3,4-tetrahydroisoquinolin-7-yl)-6H-pyrido[2,3-c]pyrimido[4,5-e][1,2]thiazin-2-amine 5,5-dioxide] | 3 |
| COC(=O)c1ccc2c(c1)N(c1cc(C(F)(F)F)cc(C(F)(F)F)c1)S(=O)(=O)c1cnc(Nc3ccc(N4CCN(C)CC4)cc3)nc1-2 [Example 91, methyl 6-[3,5-bis(trifluoromethyl)phenyl]-2-{[4-(4-methylpiperazin-1-yl)phenyl]amino}-6H-pyrimido[5,4-c][2,1]benzothiazine-8-carboxylate 5,5-dioxide] | 2700 |
| CCCN1c2cc(C(=O)NC3CCCCC3)ccc2-c2nc(Nc3ccc(N4CCN(C)CC4)cc3)ncc2S1(=O)=O [Example 81, N-cyclohexyl-2-{[4-(4-methylpiperazin-1-yl)phenyl]amino}-6-propyl-6H-pyrimido[5,4-c][2,1]benzothiazine-8-carboxamide 5,5-dioxide] | 13 |
| C=CCN1c2ccccc2-c2nc(Nc3ccc4c(c3)N(C)CCC4)ncc2S1(=O)=O [Example 8, 6-allyl-N-(1-methyl-1,2,3,4-tetrahydroquinolin-7-yl)-6H-pyrimido[5,4-c][2,1]benzothiazin-2-amine 5,5-dioxide] | 106 |
| C=CCN1c2ccccc2-c2nc(Nc3ccc(-c4nc5cnccc5[nH]4)cc3)ncc2S1(=O)=O [Example 14, 6-allyl-N-[4-(1H-imidazo[4,5-c]pyridin-2-yl)phenyl]-6H-pyrimido[5,4-c][2,1]benzothiazin-2-amine 5,5-dioxide] | 1440 |
| C=CCN1c2ncccc2-c2nc(Nc3ccc(N4CCN(C)CC4)cc3)ncc2S1(=O)=O [Example 40, 6-allyl-N-[4-(4-methylpiperazin-1-yl)phenyl]-6H-pyrido[2,3-c]pyrimido[4,5-e][1,2]thiazin-2-amine 5,5-dioxide] | 5 |
| C=CCN1c2ccccc2-c2nc(Nc3cccc(N4CCN(C)CC4)c3)ncc2S1(=O)=O [Example 18, 6-allyl-N-[3-(4-methylpiperazin-1-yl)phenyl]-6H-pyrimido[5,4-c][2,1]benzothiazin-2-amine 5,5-dioxide] | 4 |
| C=CCN1c2ncccc2-c2nc(Nc3ccc(N4CCN5CCCC5C4)cc3)ncc2S1(=O)=O (centres unmarked) [Example 48, 6-allyl-N-[4-(hexahydropyrrolo[1,2-a]pyrazin-2(1H)-yl)phenyl]-6H-pyrido[2,3-c]pyrimido[4,5-e][1,2]thiazin-2-amine 5,5-dioxide] | 2 |
| CCCN1c2cc(C(=O)NCc3cccnc3)ccc2-c2nc(Nc3ccc(N4CCN(C)CC4)cc3)ncc2S1(=O)=O [Example 87, 2-{[4-(4-methylpiperazin-1-yl)phenyl]amino}-6-propyl-N-(pyridin-3-ylmethyl)-6H-pyrimido[5,4-c][2,1]benzothiazine-8-carboxamide 5,5-dioxide] | 5 |
